Measurements: ChEMBL document CHEMBL1201862, “PubChem BioAssay data set” (2004)
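Exposure lasted 48 hours, with cells grown in 96-well plates and compounds tested at five concentrations. GI50 marks 50% less growth.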 Activity calls are given as the source filed them. No stated cut-off is given here; in the data, active = GI50 up to about 1.1 µM and inactive = higher.

What was measured:
Test in all cases: inhibition of tumour cell growth, NCI panel, 48 h
[1] = tested on: TK-10
[2] = tested on: M14
[3] = tested on: OVCAR-8
[4] = tested on: RXF 393
[5] = tested on: SK-MEL-2
[6] = tested on: KM12
[7] = tested on: UO-31
[8] = tested on: SN12C
[9] = tested on: HOP-92
[10] = tested on: LOX IMVI
[11] = tested on: EKVX
[12] = tested on: K562
[13] = tested on: ACHN
[14] = tested on: SR
[15] = tested on: SF-268
[16] = tested on: RPMI-8226
[17] = tested on: COLO 205

Measured: GI50

CC1OC=CC(=O)C1O (centres undefined)
inactive: [1] > 100 µM | [2] > 100 µM | [3] > 100 µM | [4] > 100 µM | [5] > 100 µM | [6] > 100 µM | [7] > 100 µM | [8] > 100 µM | [9] > 100 µM | [10] > 100 µM | [11] > 100 µM | [12] > 100 µM | [13] > 100 µM | [14] > 100 µM

CCOC(=O)NC(=O)c1cn(CCSCCOC(=O)NCCCCCCNC(=O)OCCSCCn2cc(C(=O)NC(=O)OCC)c(=O)n(C)c2=O)c(=O)n(C)c1=O
inactive: [15] 24 µM | [16] 20.5 µM | [1] 44.3 µM | [3] 20.1 µM | [4] 27.6 µM | [5] 34.2 µM | [7] > 100 µM | [8] 21.8 µM | [9] 20.9 µM | [10] 32.1 µM | [17] 56.2 µM | [11] > 100 µM | [13] > 100 µM | [14] 13.4 µM

CC1(c2cc3c(cc2Br)OCO3)SCCCS1
inactive: [15] 44.6 µM | [16] 27.4 µM | [1] 33.4 µM | [2] 38.3 µM | [3] 47.5 µM | [4] 18.3 µM | [5] 26.2 µM | [6] 51.4 µM | [7] 24.2 µM | [8] 39.3 µM | [9] 17.7 µM | [10] 40 µM | [17] 51.4 µM | [11] 77.1 µM | [12] 31 µM | [13] 41.4 µM

O=C(O)COc1ccccc1C(=O)Nc1ccccc1
inactive: [15] > 100 µM | [16] > 100 µM | [1] > 100 µM | [2] > 100 µM | [3] > 100 µM | [5] > 100 µM | [6] > 100 µM | [7] > 100 µM | [8] > 100 µM | [9] > 100 µM | [10] > 100 µM | [17] > 100 µM | [11] > 100 µM | [12] > 100 µM | [13] > 100 µM | [14] > 100 µM

CN(C)/N=C(\CCN1CCCC1)CC(c1ccccc1)c1c(O)c2ccccc2oc1=O (centres undefined)
inactive: [15] > 100 µM | [16] > 100 µM | [1] > 100 µM | [2] > 100 µM | [4] > 100 µM | [5] > 100 µM | [8] > 100 µM | [9] > 100 µM | [10] > 100 µM | [17] > 100 µM | [11] > 100 µM | [12] > 100 µM | [13] > 100 µM

CC1=C[C@@H]2Cc3occc3C(C)(C)[C@@H]2CC1
inactive: [15] 20.2 µM | [1] 22.4 µM | [2] 22.3 µM | [3] 19.5 µM | [4] 18.7 µM | [5] 10.9 µM | [6] 16.9 µM | [7] 19.2 µM | [8] 15.8 µM | [9] 19.5 µM | [10] 19.2 µM | [17] 18.9 µM | [11] 18 µM | [12] 21.1 µM | [13] 16 µM | [14] 14.5 µM

CCc1ccccc1NC(=O)CCc1n[nH]c(=S)o1
inactive: [15] > 100 µM | [16] 98.9 µM | [1] > 100 µM | [2] > 100 µM | [3] > 100 µM | [6] > 100 µM | [7] > 100 µM | [8] > 100 µM | [9] > 100 µM | [17] > 100 µM | [11] > 100 µM | [12] > 100 µM | [13] > 100 µM

Cc1cccc(C(C)(C)C)c1NC(=O)CCc1nnc(S)[nH]1
inactive: [15] > 100 µM | [16] > 100 µM | [1] > 100 µM | [2] > 100 µM | [3] > 100 µM | [4] > 100 µM | [5] > 100 µM | [6] > 100 µM | [7] > 100 µM | [8] > 100 µM | [9] > 100 µM | [10] > 100 µM | [17] > 100 µM | [12] > 100 µM | [13] > 100 µM

O=C(O)CCNCCCNCCC(=O)O
inactive: [15] > 100 µM | [16] > 100 µM | [1] > 100 µM | [2] > 100 µM | [3] > 100 µM | [4] > 100 µM | [5] > 100 µM | [6] > 100 µM | [8] > 100 µM | [9] > 100 µM | [10] > 100 µM | [17] > 100 µM | [11] > 100 µM | [12] > 100 µM | [13] > 100 µM

C#Cc1c(C)c(/C=C/C(C)=C/C=C/C(C)=C/C(=O)OC)n(C)c1C
inactive: [15] > 100 µM | [16] > 100 µM | [1] > 100 µM | [2] > 100 µM | [3] > 100 µM | [5] > 100 µM | [6] > 100 µM | [7] > 100 µM | [9] > 100 µM | [10] > 100 µM | [17] > 100 µM | [11] > 100 µM | [12] > 100 µM | [13] > 100 µM | [14] > 100 µM

COC(=O)/C(C#N)=C1\NN=NN1CCCc1ccccc1
inactive: [16] > 100 µM | [1] > 100 µM | [2] > 100 µM | [3] > 100 µM | [4] > 100 µM | [6] > 100 µM | [7] 76.4 µM | [8] > 100 µM | [9] > 100 µM | [10] > 100 µM | [17] > 100 µM | [11] > 100 µM | [12] > 100 µM | [13] > 100 µM

CCOC(=O)C1=C(C)N(NC(N)=O)C(C)(O)C12CCOC2=O (centres undefined)
inactive: [15] > 100 µM | [16] > 100 µM | [2] > 100 µM | [3] > 100 µM | [5] > 100 µM | [6] > 100 µM | [7] > 100 µM | [8] > 100 µM | [10] > 100 µM | [11] > 100 µM | [12] > 100 µM | [13] > 100 µM | [14] > 100 µM

Cc1ccccc1C(=O)c1c(O)c2c(c(O)c1Br)CCCC2
inactive: [15] 15 µM | [16] 20.1 µM | [1] 17.8 µM | [2] 14 µM | [3] 17.3 µM | [4] 18.7 µM | [5] 16.7 µM | [6] 16.6 µM | [7] 17.5 µM | [8] 18.1 µM | [9] 23.2 µM | [17] 18.9 µM | [11] 17.6 µM | [12] 21.1 µM | [13] 17.9 µM | [14] 16.2 µM

CCCCCCCCOC(CO)CO
inactive: [15] > 100 µM | [16] > 100 µM | [1] > 100 µM | [2] > 100 µM | [3] > 100 µM | [7] > 100 µM | [8] > 100 µM | [9] 44.6 µM | [10] > 100 µM | [17] > 100 µM | [12] > 100 µM | [13] > 100 µM | [14] > 100 µM

COC1/C(=C\c2ccccc2I)c2ccccc2N1C(C)=O (centres undefined)
inactive: [16] 8.87 µM | [3] 30 µM | [4] 5.69 µM | [5] 17.5 µM | [6] 15.6 µM | [7] 2.48 µM | [8] 15.2 µM | [9] 2.2 µM | [17] 17.6 µM | [11] 15.1 µM | [12] 15.6 µM | [13] 19.5 µM | [14] 14.4 µM

C=C1CCC23CC(CC[C@@H]2[C@@]12C[C@@H](c1ccoc1)OC2=O)OC3=O (some centres undefined)
inactive: [15] > 100 µM | [16] > 100 µM | [1] > 100 µM | [2] > 100 µM | [3] > 100 µM | [5] > 100 µM | [6] > 100 µM | [7] > 100 µM | [8] > 100 µM | [9] > 100 µM | [17] > 100 µM | [11] > 100 µM | [12] > 100 µM | [13] > 100 µM

CC(NC1CCCC[C@@H]1O)c1ccccc1 (some centres undefined)
inactive: [16] > 100 µM | [1] > 100 µM | [2] > 100 µM | [3] > 100 µM | [4] > 100 µM | [5] > 100 µM | [6] > 100 µM | [7] > 100 µM | [8] > 100 µM | [9] > 100 µM | [10] > 100 µM | [17] > 100 µM | [11] > 100 µM | [12] > 100 µM | [13] > 100 µM

Cc1nc2c(o1)/C(=N\c1ccccc1)c1ccccc1/C2=N/c1ccccc1
inactive: [15] > 100 µM | [16] 47 µM | [1] > 100 µM | [2] 51.5 µM | [3] > 100 µM | [4] > 100 µM | [5] 61.9 µM | [6] 85.5 µM | [7] 73.6 µM | [8] 63.4 µM | [9] 49.2 µM | [10] 28.4 µM | [17] 29.1 µM | [11] 79.1 µM | [12] 33.8 µM | [13] 53.6 µM

Cc1cc(O)c2c(c1)C(=O)c1cc(O)cc(O)c1C2=O [EMODIN]
inactive: [15] 22 µM | [16] 17.7 µM | [1] 39.4 µM | [2] 21.4 µM | [4] 41 µM | [5] 33.9 µM | [6] 20.5 µM | [8] 20.5 µM | [9] 14.4 µM | [10] 15.9 µM | [17] 19.8 µM | [13] 18.6 µM | [14] 23.4 µM
